Results reported in ChEMBL document CHEMBL5236579, “Hydrophobicity Determines the Bacterial Killing Rate of α-Helical Antimicrobial Peptides and Influences the Bacterial Resistance Development” (J Med Chem, 2022).
Converted amounts (≈) assume the structure as drawn. The source made the active and inactive calls. No cut-off for these calls is given here. Where a SMILES comes first, the peptide text is derived from it.

Tests used:
Staphylococcus aureus [1] = assay: Antimicrobial activity against Staphylococcus aureus ATCC25923 by two fold broth microdilution method; assay type: functional; conditions: read-out: MIC
Staphylococcus aureus [2] = assay: Antimicrobial activity against clinical isolates Staphylococcus aureus by two fold broth microdilution method; assay type: functional
Bacillus cereus = assay: Antimicrobial activity against clinical isolates Bacillus cereus by two fold broth microdilution method; assay type: functional
Escherichia coli [3] = assay: Antimicrobial activity against Escherichia coli ATCC27622 by two fold broth microdilution method; assay type: functional
Vibrio parahaemolyticus [4] = assay: Antimicrobial activity against Vibrio parahaemolyticus ATCC17802 by two fold broth microdilution method; assay type: functional
Vibrio parahaemolyticus [5] = assay: Bactericidal activity against Vibrio parahaemolyticus ATCC17802 assessed as killing rate at 0.5 X MIC by measuring time limit of detection by bacterial killing kinetic assay; assay type: functional
Staphylococcus aureus [6] = assay: Bactericidal activity against Staphylococcus aureus ATCC25923 assessed as killing rate at 0.5 X MIC measured upto 180 min by bacterial killing kinetic assay; assay type: functional, organism-based
Escherichia coli [7] = assay: Bactericidal activity against Escherichia coli ATCC25722 assessed as killing rate at 0.5 X MIC measured upto 180 min by bacterial killing kinetic assay; assay type: functional, organism-based
Vibrio parahaemolyticus [8] = assay: Induction of morphological changes in Vibrio parahaemolyticus ATCC17802 assessed as massive cell collapse incubated at 5 times MIC and measured after 60 mins by scanning electron microscopy based analysis; assay type: functional, organism-based
Vibrio parahaemolyticus [9] = assay: Induction of morphological changes in Vibrio parahaemolyticus ATCC17802 assessed as surface fibrosis incubated at 5 times MIC and measured after 60 mins by scanning electron microscopy based analysis; assay type: functional, organism-based
Vibrio parahaemolyticus [10] = assay: Induction of morphological changes in Vibrio parahaemolyticus ATCC17802 assessed as cellular inclusion leakage incubated at 5 times MIC and measured after 60 mins by scanning electron microscopy based analysis; assay type: functional, organism-based
HaCaT = assay: Cytotoxicity against human HaCaT cells incubated for 48 hrs by MTT assay; assay type: toxicity, cell-based; conditions: dose < 250 µg/ml
Peritoneal macrophage = assay: Cytotoxicity against mouse peritoneal macrophage cells incubated for 48 hrs by MTT assay; assay type: toxicity, cell-based; conditions: dose < 250 µg/ml
[11] = Hemolytic activity in human erythrocytes measured after 30 mins; assay type: toxicity, cell-based; conditions: erythrocyte, 0.5 h
Cell membrane [12] = assay: Induction of inner membrane permeabilization in Vibrio parahaemolyticus ATCC17802 at 5 times MIC measured upto 200 mins by propidium iodide penetration assay; assay type: cell membranes
Cell membrane [13] = assay: Induction of inner membrane permeabilization in Vibrio parahaemolyticus ATCC17802 assessed as calcein leakage at 5 times MIC by calcein-AM leakage assay; assay type: cell membranes; conditions: time <= 200.0 min, TDE = time-dependent effect
Cell membrane [14] = assay: Induction of inner membrane permeabilization in Vibrio parahaemolyticus ATCC17802 assessed as increase in PI fluorescence intensity at 5 times MIC by propidium iodide penetration assay; assay type: cell membranes; conditions: time <= 200.0 min
Cell membrane [15] = assay: Induction of cytoplasmic membrane permeabilization in Vibrio parahaemolyticus […] assessed as calcein transmembrane diffusion into interior of gaint unilamellar vesicles by measuring time to equilibrium between inside and outside of vesicles at 2 ug/mL by confocal microscopy based calcein-AM leakage assay; assay type: cell membranes; conditions: dose 2.0 µg/ml
Cell membrane [16] = assay: Binding affinity to Vibrio parahaemolyticus ATCC17802 cell membrane assessed as increase in fluorescence intensity measured after 30 mins by flow cytometry analysis (reference value: 1.85%); assay type: cell membranes
Cell membrane [17] = assay: Binding affinity to Vibrio parahaemolyticus ATCC17802 cell membrane assessed as increase in fluorescence intensity measured after 120 mins by flow cytometry analysis (reference value: 1.88%); assay type: cell membranes
Cell membrane [18] = assay: Induction of outer membrane permeabilization in Vibrio parahaemolyticus ATCC17802 assessed as increase fluorescence intensity at 0.5 to 2 times of MIC by NPN uptake assay; assay type: cell membranes; conditions: time <= 15.0 min, TDE = time-dependent effect
Cell membrane [19] = assay: Induction of outer membrane permeabilization in Escherichia coli ATCC25722 assessed as increase fluorescence intensity at 0.5 to 2 times of MIC by NPN uptake assay; assay type: cell membranes; conditions: time <= 15.0 min, TDE = time-dependent effect
Cell membrane [20] = assay: Induction of outer membrane permeabilization in Vibrio parahaemolyticus ATCC17802 assessed as increase fluorescence intensity measured upto 15 mins by NPN uptake assay; assay type: cell membranes
Cell membrane [21] = assay: Induction of outer membrane permeabilization in Escherichia coli ATCC25722 assessed as increase fluorescence intensity measured upto 15 mins by NPN uptake assay; assay type: cell membranes
Lipopolysaccharide (LPS) [22] = assay: Binding affinity to Escherichia coli LPS assessed as LPS neutralizing activity measured after 5 mins by LPS neutralization assay
Lipopolysaccharide (LPS) [23] = assay: Binding affinity to Escherichia coli LPS assessed as dissociation constant measured upto 600 sec by surface plasmon resonance imaging method
[24] = Effect on morphological changes in POPC/POPG (3:1) bilayer membrane assessed as formation of bulge aggregates by measuring the height of bulges at 2 ug/ml incubated for 40 mins under neutral pH and low ionic strength by atomic force microscopic analysis; assay type: cell membranes; conditions: Cell membrane, dose 2.0 µg/ml
Escherichia coli [25] = assay: In vivo antibacterial activity against Escherichia coli ATCC25722 infected in Balb/c mouse model assessed as reduction in bacterial CFU count on skin at 20 ug/ml applied 4 hrs after infection and measured after 120 mins; assay type: functional, organism-based; conditions: dose 20.0 µg/ml
Escherichia coli [26] = assay: In vivo antibacterial activity against Escherichia coli ATCC25722 infected in Balb/c mouse model assessed as reduction in bacterial CFU count on skin at 20 ug/ml incubated for 6 hrs post infection and measured after 2 hrs post compound treatment; assay type: functional, organism-based; conditions: dose 20.0 µg/ml, time 8.0 hrs
Vibrio parahaemolyticus [27] = assay: Induction of bacterial resistance in Vibrio parahaemolyticus ATCC17802 assessed as fold increase in MIC treated over 30 serial passages measured after 24 hrs; assay type: functional

With `CC[C@H](C)[C@H](NC(=O)[C@H](CCCCN)NC(=O)[C@H](CCCCN)NC(=O)[C@H](C)NC(=O)[C@H](CCCCN)NC(=O)[C@H](CCCCN)NC(=O)[C@H](CC(C)C)NC(=O)[C@@H](NC(=O)[C@H](CCCCN)NC(=O)[C@H](CCCCN)NC(=O)[C@H](Cc1c[nH]c2ccccc12)NC(=O)[C@H](Cc1ccccc1)NC(=O)[C@H](CCCCN)NC(=O)[C@H](CCCNC(=N)N)NC(=O)[C@H](CCCNC(=N)N)NC(=O)[C@@H](N)CCCCN)C(C)C)C(=O)N[C@@H](C)C(=O)O` (H-KRRKFWKKVLKKAKKIA-OH) the MIC (Staphylococcus aureus [1]) was 2.34 µg/mL (≈ 1.08 µM), the MIC (Staphylococcus aureus [2]) was 18.8 µg/mL (≈ 8.69 µM) and the MIC (Bacillus cereus) was 4.69 µg/mL (≈ 2.17 µM). For the same molecule, the MIC (Escherichia coli [3]) was 9.38 µg/mL (≈ 4.35 µM), the MIC (Vibrio parahaemolyticus [4]) was 4.69 µg/mL (≈ 2.17 µM) and the Time (Vibrio parahaemolyticus [5]) was greater than 180 min. For the same molecule, the Activity (Staphylococcus aureus [6]) was “Active” and the Activity (Escherichia coli [7]) was “Active”.

Molecule `CC[C@H](C)[C@H](NC(=O)[C@H](CCCCN)NC(=O)[C@H](CCCCN)NC(=O)[C@H](CC(C)C)NC(=O)[C@H](CCCCN)NC(=O)[C@H](CCCCN)NC(=O)[C@H](CC(C)C)NC(=O)[C@@H](NC(=O)[C@H](CCCCN)NC(=O)[C@H](CCCCN)NC(=O)[C@H](Cc1c[nH]c2ccccc12)NC(=O)[C@H](Cc1ccccc1)NC(=O)[C@H](CCCCN)NC(=O)[C@H](CCCNC(=N)N)NC(=O)[C@H](CCCNC(=N)N)NC(=O)[C@@H](N)CCCCN)C(C)C)C(=O)N[C@@H](CC(C)C)C(=O)O` (H-KRRKFWKKVLKKLKKIL-OH) has an MIC (Staphylococcus aureus [1]) of 2.34 µg/mL (≈ 1.04 µM), an MIC (Staphylococcus aureus [2]) of 9.38 µg/mL (≈ 4.19 µM) and an MIC (Bacillus cereus) of 4.69 µg/mL (≈ 2.09 µM). For the same molecule, the MIC (Escherichia coli [3]) was 4.69 µg/mL (≈ 2.09 µM), the MIC (Vibrio parahaemolyticus [4]) was 2.34 µg/mL (≈ 1.04 µM) and the Time (Vibrio parahaemolyticus [5]) was 15 min. For the same molecule, the Activity (Staphylococcus aureus [6]) was “Active” and the Activity (Escherichia coli [7]) was “Active”.

With `CC[C@H](C)[C@H](NC(=O)[C@H](CC(C)C)NC(=O)[C@H](CCCNC(=N)N)NC(=O)[C@H](CC(C)C)NC(=O)[C@H](CC(C)C)NC(=O)[C@H](CCCCN)NC(=O)[C@H](CCCCN)NC(=O)[C@H](Cc1ccccc1)NC(=O)[C@H](CC(C)C)NC(=O)CNC(=O)[C@@H](N)CC(C)C)C(=O)N[C@@H](CCCCN)C(=O)N[C@@H](CCCCN)C(=O)NCC(=O)N[C@@H](Cc1ccccc1)C(=O)N[C@@H](CCCCN)C(=O)N[C@@H](CCCCN)C(=O)O` (H-LGLFKKLLRLIKKGFKK-OH) the MIC (Staphylococcus aureus [1]) was 2.34 µg/mL (≈ 1.15 µM), the MIC (Staphylococcus aureus [2]) was 18.8 µg/mL (≈ 9.23 µM) and the MIC (Bacillus cereus) was 4.69 µg/mL (≈ 2.31 µM). The MIC (Escherichia coli [3]) was 9.38 µg/mL (≈ 4.62 µM), the MIC (Vibrio parahaemolyticus [4]) was 4.69 µg/mL (≈ 2.31 µM) and the Time (Vibrio parahaemolyticus [5]) was 60 min. For the same molecule, the Activity (Vibrio parahaemolyticus [8]) was “Active”, the Activity (Vibrio parahaemolyticus [9]) was “Active” and the Activity (Vibrio parahaemolyticus [10]) was “Active”. For the same molecule, the Activity (HaCaT) was “Dose-Dependent Effect”, the Activity (Peritoneal macrophage) was “Dose-Dependent Effect” and the Activity [11] was “Toxic”. For the same molecule, the Activity (Cell membrane [12]) was “Active”, the Activity (Cell membrane [13]) was “Tde” and the Activity (Cell membrane [14]) was “Active”. For the same molecule, the TIME (Cell membrane [15]) was less than 0.25 h, the Activity (Cell membrane [16]) was 64.3% and the Activity (Cell membrane [17]) was 99.4%. For the same molecule, the Activity (Cell membrane [18]) was “Tde”, the Activity (Cell membrane [19]) was “Tde” and the Activity (Cell membrane [20]) was “Dose-Dependent Effect”. The Activity (Cell membrane [21]) was “Dose-Dependent Effect”, the Activity (Lipopolysaccharide (LPS) [22]) was “inactive” and the Kd (Lipopolysaccharide (LPS) [23]) was 49.4 µM. The Activity [24] was 1 nm, the Activity (Escherichia coli [25]) was “Active” and the Activity (Escherichia coli [26]) was “Active”. The “fold change (FC)” value (Vibrio parahaemolyticus [27]) was 2.
